Results from patent US20180203025A1, “HDL THERAPY MARKERS” (Cerenis Therapeutics Holding SA, priority 2014, published 2018).

How the values were obtained:
[1] = test system: SREBP-1 mRNA in mouse macrophages (J774); experiment: SREBP-1 gene expression (real-time PCR) in J774 macrophages; format: cell-based; conditions: 6 hours
Procedure: (§1) The mRNA regulation of those genes expressing ABCA1, ABCG1 and SR-BI is linked to nuclear proteins as LXR, SREBP1 and SREBP2. […] Gene expression was assayed using the protocols described in Sections 8.3.2 (RNA extraction); 8.3.4 (reverse transcription), and 8.3.5 (qPCR). SREBP-1, SREBP-2 and LXR gene expression levels were determined with Taqman probe (Mm01138344.m1, Mm01306292.m1, Mm00443451.m1 respectively) according to the manufacturer's protocol. The reference gene used is HPRT1 (Taqman probe: Mm00446968.m1).
(§2) J774 were seeded on 6 well plates (300,000 cells/well) and loaded with oxidized-LDL. […] Gene expression was assayed using the protocols described in Sections 8.3.2 (RNA extraction); 8.3.4 (reverse transcription), and 8.3.5 (qPCR). SR-BI gene (Taqman probe Mm00450234.m1), ABCG1 (Taqman probe Mm00437390.m1), SREBP1 (Taqman probe Mm01138344.m1) and ABCA1 (Taqman probe Mm00442646.m1) expression were determined according to the manufacturer's protocol. The reference gene used is HPRT1 (Taqman probe: Mm00446968.m1).
(§3) This study used β-cyclodextrin to examine the effect of β-cyclodextrin on LXR, SREBP1 and SREBP2 mRNA expression in J774 macrophages. J774 were seeded on 6 well plates (300,000 cells/well). β-cyclodextrin (0.03, 0.1, 0.3, 1, 3, 10 and 30 mM) was added for 6 hours on the macrophages and the RNA were extracted with the RiboPure™ kit according to the manufacturer's protocol. Gene expression was assayed using the protocols described in Sections 8.3.2 (RNA extraction); 8.3.4 (reverse transcription), and 8.3.5 (qPCR). SREBP-1, SREBP-2 and LXR gene expression were determined with Taqman probe (Mm01138344.m1, Mm01306292.m1, Mm00443451.m1 respectively) according to the manufacturer's protocol. The reference gene used is HPRT1 (Taqman probe: Mm00446968.m1).

[2] = test system: ABCA1 mRNA in mouse macrophages (J774); experiment: ABCA1 gene expression (real-time PCR) in J774 macrophages; format: cell-based
Procedure: Use the same amount of cDNA for all samples (4 μl of 20 μL RT reaction on 0.5 or 1 μg RNA). For each sample (to be run in triplicate), sample the following into a nuclease-free 1.5-mL microcentrifuge tube (add the volume for 2 samples more to calculate the final volume of PCR reaction mix): 2× TaqMan® Gene Expression Master Mix: 10 μl; 20× TaqMan® Gene Expression Assay: 1 μl; Nuclease free H2O: 5 μl. Cap the tube and invert it several times to mix the reaction components. Centrifuge the tube briefly.
J774 were seeded on 6× well plates (300,000 cells/well) and loaded with oxidized-LDL without the use of ^3H-cholesterol. […] Gene expression was assayed using the protocols described in Sections 8.3.2 (RNA extraction); 8.3.4 (reverse transcription), and 8.3.5 (qPCR). ABCA1 gene expression was determined with Taqman probe Mm00442646.m1 according to the manufacturer's protocol. The reference gene used is HPRT1 (Taqman probe: Mm00446968.m1).
as §2
This study examined the kinetics of decreasing the mRNA level of ABCA1 in J774 macrophages. J774 were seeded on 6 well plates (300,000 cells/well) and loaded with oxidized-LDL. […] Gene expression was assayed using the protocols described in Sections 8.3.2 (RNA extraction); 8.3.4 (reverse transcription), and 8.3.5 (qPCR). ABCA1 (Taqman probe Mm00442646.m1) expression was determined according to the manufacturer's protocol. The reference gene used is HPRT1 (Taqman probe: Mm00446968.m1).
as §2, with “(qPCR).” for “(qPCR). SR-BI gene (Taqman probe Mm00450234.m1),”, “Mm00437390.m1)” for “Mm00437390.m1), SREBP1 (Taqman probe Mm01138344.m1)”
as §2, with “(qPCR).” for “(qPCR). SR-BI gene (Taqman probe Mm00450234.m1),”, “Mm00437390.m1)” for “Mm00437390.m1), SREBP1 (Taqman probe Mm01138344.m1)”
J774 were seeded on 6 well plates (600,000 cells/well) in DMEM 10% FCS. […] Medium was removed and the macrophages were washed with DMEM. […] Gene expression was assayed using the protocols described in Sections 8.3.2 (RNA extraction); 8.3.4 (reverse transcription), and 8.3.5 (qPCR). ABCG1 (Taqman probe Mm00437390.m1), ABCA1 (Taqman probe Mm00442646.m1) and SR-BI (Taqman probe Mm00450234.m1) expression were determined according to the manufacturer's protocol. The reference gene used is HPRT1 (Taqman probe: Mm00446968.m1).
J774 were seeded on 6 well plates (300,000 cells/well) in DMEM 2.5% FCS. […] The next day, medium was replaced by fresh DMEM supplemented with or without ApoA-I (25 or 250 μg/mL) to initiate ApoA-I cholesterol efflux for 2 hours. The experiment was stopped at different time points: 1) J774 stopped before addition of ApoA-I, 2) J774+DMEM (passive efflux for 2 hours), 3) J774+ApoA-I (25 μg/mL) for 2 hours and 4) J774+ApoA-I (250 μg/mL) for 2 hours. The RNA was extracted with the RiboPure™ kit according to the manufacturer's protocol.

[3] = test system: LXR mRNA in mouse macrophages (J774); experiment: LXR gene expression (real-time PCR) in J774 macrophages; format: cell-based; conditions: Study P; 0.03 to 30 mM; 6 hours
Procedure: as §1, §3

RLT pathway = experiment: SAMBA trial: cholesterol mobilization, LCAT activation, fecal cholesterol elimination; format: in vivo, human; conditions: one dose 8 mg/Kg
Text: […] After this induction phase, the study subjects were re-evaluated with lipoprotein profiles and an MRI scan. Subsequently, the study subjects continued to be treated once every two weeks in a “maintenance phase” for 6 months' total therapy. At that point the lipoprotein profiles and MRI scans were repeated.

[4] = Subject 7 (ABCA1−/−, Tangier disease)

Row | Compound | SREBP-1 mRNA ([1]; Study P, 0.03 to 30 mM) | ABCA1 mRNA level ([2]; Study O, 0.03 to 30 mM, 6 hours) | LXR mRNA [3] | SREBP-1 gene expression ([1]; Study D, 25, 250 and 1000 μg/mL) | concentration above which SREBP1 decrease and plateau observed ([1]; Study E) | ABCA1 mRNA expression ([2]; Study A, oxidized-LDL loaded, 25, 250 and 1000 μg/mL, 6 hours) | dose for diminishing half of the ABCA1 level ([2]; Study E, 6 hours) | time to decrease half of the ABCA1 mRNA level ([2]; Study F, 25 or 250 μg/mL) [h] | ABCA1 mRNA level ([2]; Study G, 250 μg/mL, 6 hours, without cAMP) | ABCA1 mRNA level (RQ) ([2]; Study G, overnight cAMP 300 μM, then 250 μg/mL 6 hours) | effect of cAMP activation on CER-001 dose decreasing ABCA1 ([2]; Study I) | dose of maximum decrease of ABCA1 mRNA level ([2]; Study I, 6 hours) | doses at which decrease of ABCA1 mRNA level was observed ([2]; Study I, 6 hours, presence or absence of cAMP) [µg/mL] | ABCA1 mRNA level ([2]; Study J, 24 hours treatment, 250 μg/mL) | time for ABCA1 mRNA level to return to baseline after removal ([2]; Study J, after 24 hours at 250 μg/mL) | ABCA1 mRNA level ([2]; Study L, overnight pre-incubation at 250 μg/mL) | LCAT activation (RLT pathway; Subject 1 (ApoA-I−/−)) | cholesterol mobilization (RLT pathway; Subject 1 (ApoA-I−/−)) | LCAT activation (RLT pathway; [4]) | cholesterol mobilization (RLT pathway; [4])
1 | OC[C@H]1O[C@@H]2O[C@H]3[C@H](O)[C@@H](O)[C@@H](O[C@H]4[C@H](O)[C@@H](O)[C@@H](O[C@H]5[C@H](O)[C@@H](O)[C@@H](O[C@H]6[C@H](O)[C@@H](O)[C@@H](O[C@H]7[C@H](O)[C@@H](O)[C@@H](O[C@H]8[C@H](O)[C@@H](O)[C@@H](O[C@H]1[C@H](O)[C@H]2O)O[C@@H]8CO)O[C@@H]7CO)O[C@@H]6CO)O[C@@H]5CO)O[C@@H]4CO)O[C@@H]3CO [β-cyclodextrin, reference compound] | dose-dependent decrease | dose-dependent decrease | No significant changes | – | – | – | – | – | – | – | – | – | – | – | – | – | – | – | – | –
2 | CER-001: engineered recombinant human apolipoprotein A-I HDL with sphingomyelin and DPPG; protein-to-phospholipid ratio 1:2.7, 97% Sph and 3% DPPG | – | – | – | affected SREBP-1 mRNA levels | above 2.5 μg/mL | decreased the ABCA1 mRNA at all the doses | around 7.5 μg/mL | 4 | decreased | 1 | did not change the sufficient dose of CER-001 | around 15 μg/mL | 4 to 6 | decrease | more than 8 hours | strongly decreased the ABCA1 mRNA level | LCAT activation | cholesterol mobilization | LCAT activation | cholesterol mobilization
